# Test results from ChEMBL document CHEMBL3885881, “DrugMatrix”.
# Organism: Rattus norvegicus
# Assay type: toxicity, organism-based, Sprague-Dawley
# Details: in vivo, po, route oral GAVAGE, […]; for ABSOLUTE EOSINOPHIL / ABSOLUTE LYMPHOCYTE / ABSOLUTE MONOCYTE / ABSOLUTE SEGMENTED NEUTROPHIL / BASOPHIL / EOSINOPHIL / ERYTHROCYTE COUNT / HEMATOCRIT / HEMOGLOBIN / LEUKOCYTE COUNT / LYMPHOCYTE / MEAN CORPUSCULAR HEMOGLOBIN / MEAN CORPUSCULAR HEMOGLOBIN CONCENTRATION / MEAN CORPUSCULAR VOLUME / MONOCYTE / NEUTROPHIL / NUCLEATED RED BLOOD CELLS / PLATELET COUNT: tissue Blood; for ALANINE AMINOTRANSFERASE / ALBUMIN / ALKALINE PHOSPHATASE / ASPARTATE AMINOTRANSFERASE / BLOOD UREA NITROGEN / CARBON DIOXIDE / CHLORIDE / CHOLESTEROL / CREATINE PHOSPHOKINASE / CREATININE / GLUCOSE / LACTATE DEHYDROGENASE / LIPASE / PHOSPHORUS / POTASSIUM / SODIUM / TOTAL BILIRUBIN / TOTAL PROTEIN / URIC ACID: tissue Plasma
# [1] = 0 mg/kg, 6 h, vehicle control, dose level Control, time 0.25 day
# [2] = 0 mg/kg, 24 h, vehicle control, dose level Control, time 1 day
# [3] = 100 mg/kg, 6 h, dose level Low, time 0.25 day
# [4] = 100 mg/kg, 24 h, dose level Low, time 1 day
# Description: DrugMatrix - Regimen: Single
smiles,measurement,setting,value
CC(C)(Oc1ccc(CCNC(=O)c2ccc(Cl)cc2)cc1)C(=O)O [BEZAFIBRATE],ABSOLUTE EOSINOPHIL,[1],0 CELLS/uL
same,ABSOLUTE LYMPHOCYTE,[1],8631 CELLS/uL
same,ABSOLUTE MONOCYTE,[1],171.17 CELLS/uL
same,ABSOLUTE SEGMENTED NEUTROPHIL,[1],1214.5 CELLS/uL
same,BASOPHIL,[1],0%
same,EOSINOPHIL,[1],0%
same,ERYTHROCYTE COUNT,[1],5.42 x10E6/uL
same,HEMATOCRIT,[1],34.7%
same,HEMOGLOBIN,[1],13.67 G/DL
same,LEUKOCYTE COUNT,[1],10.02 x10E3/uL
same,LYMPHOCYTE,[1],86.17%
same,MEAN CORPUSCULAR HEMOGLOBIN,[1],25.27 pg
same,MEAN CORPUSCULAR HEMOGLOBIN CONCENTRATION,[1],39.42 G/DL
same,MEAN CORPUSCULAR VOLUME,[1],64.12 fL
same,MONOCYTE,[1],1.67%
same,NEUTROPHIL,[1],12.17%
same,NUCLEATED RED BLOOD CELLS,[1],0 /100WBC
same,PLATELET COUNT,[1],1050 x10E3/uL
same,ALANINE AMINOTRANSFERASE,[1],61 u/L
same,ALBUMIN,[1],4.67 G/DL
same,ALKALINE PHOSPHATASE,[1],312.5 u/L
same,ASPARTATE AMINOTRANSFERASE,[1],117.5 u/L
same,BLOOD UREA NITROGEN,[1],8.67 mg/dL
same,CARBON DIOXIDE,[1],26.33 mmol/L
same,CHLORIDE,[1],100.5 MEQ/L
same,CHOLESTEROL,[1],72 mg/dL
same,CREATINE PHOSPHOKINASE,[1],283.33 u/L
same,CREATININE,[1],0.28 mg/dL
same,GLUCOSE,[1],172 mg/dL
same,LACTATE DEHYDROGENASE,[1],95.33 u/L
same,LIPASE,[1],10.17 u/L
same,PHOSPHORUS,[1],9.9 mg/dL
same,POTASSIUM,[1],5.75 MEQ/L
same,SODIUM,[1],142.4 MEQ/L
same,TOTAL BILIRUBIN,[1],0.3 mg/dL
same,TOTAL PROTEIN,[1],5.43 G/DL
same,URIC ACID,[1],0.73 mg/dL
same,ABSOLUTE EOSINOPHIL,[2],90.83 CELLS/uL
same,ABSOLUTE LYMPHOCYTE,[2],14725.17 CELLS/uL
same,ABSOLUTE MONOCYTE,[2],220 CELLS/uL
same,ABSOLUTE SEGMENTED NEUTROPHIL,[2],1080.67 CELLS/uL
same,BASOPHIL,[2],0%
same,EOSINOPHIL,[2],0.67%
same,ERYTHROCYTE COUNT,[2],5.3 x10E6/uL
same,HEMATOCRIT,[2],33.4%
same,HEMOGLOBIN,[2],13.4 G/DL
same,LEUKOCYTE COUNT,[2],16.12 x10E3/uL
same,LYMPHOCYTE,[2],91.17%
same,MEAN CORPUSCULAR HEMOGLOBIN,[2],25.3 pg
same,MEAN CORPUSCULAR HEMOGLOBIN CONCENTRATION,[2],40.12 G/DL
same,MEAN CORPUSCULAR VOLUME,[2],63.05 fL
same,MONOCYTE,[2],1.5%
same,NEUTROPHIL,[2],6.67%
same,NUCLEATED RED BLOOD CELLS,[2],0 /100WBC
same,PLATELET COUNT,[2],1062 x10E3/uL
same,ALANINE AMINOTRANSFERASE,[2],69 u/L
same,ALBUMIN,[2],4.33 G/DL
same,ALKALINE PHOSPHATASE,[2],269 u/L
same,ASPARTATE AMINOTRANSFERASE,[2],83.67 u/L
same,BLOOD UREA NITROGEN,[2],14 mg/dL
same,CARBON DIOXIDE,[2],29 mmol/L
same,CHLORIDE,[2],100.83 MEQ/L
same,CHOLESTEROL,[2],66.67 mg/dL
same,CREATINE PHOSPHOKINASE,[2],355 u/L
same,CREATININE,[2],0.18 mg/dL
same,GLUCOSE,[2],161.33 mg/dL
same,LACTATE DEHYDROGENASE,[2],123.33 u/L
same,LIPASE,[2],10.67 u/L
same,PHOSPHORUS,[2],8.83 mg/dL
same,POTASSIUM,[2],6.06 MEQ/L
same,SODIUM,[2],142.45 MEQ/L
same,TOTAL BILIRUBIN,[2],0.2 mg/dL
same,TOTAL PROTEIN,[2],5.72 G/DL
same,URIC ACID,[2],1.27 mg/dL
same,ABSOLUTE EOSINOPHIL,[3],94.83 CELLS/uL
same,ABSOLUTE LYMPHOCYTE,[3],14637.67 CELLS/uL
same,ABSOLUTE MONOCYTE,[3],333.5 CELLS/uL
same,ABSOLUTE SEGMENTED NEUTROPHIL,[3],1884 CELLS/uL
same,BASOPHIL,[3],0%
same,EOSINOPHIL,[3],0.5%
same,ERYTHROCYTE COUNT,[3],5.71 x10E6/uL
same,HEMATOCRIT,[3],36.27%
same,HEMOGLOBIN,[3],14.22 G/DL
same,LEUKOCYTE COUNT,[3],16.95 x10E3/uL
same,LYMPHOCYTE,[3],86.67%
same,MEAN CORPUSCULAR HEMOGLOBIN,[3],24.97 pg
same,MEAN CORPUSCULAR HEMOGLOBIN CONCENTRATION,[3],39.22 G/DL
same,MEAN CORPUSCULAR VOLUME,[3],63.68 fL
same,MONOCYTE,[3],2%
same,NEUTROPHIL,[3],10.83%
same,NUCLEATED RED BLOOD CELLS,[3],0 /100WBC
same,PLATELET COUNT,[3],1045.83 x10E3/uL
same,ALANINE AMINOTRANSFERASE,[3],67.33 u/L
same,ALBUMIN,[3],4.53 G/DL
same,ALKALINE PHOSPHATASE,[3],339 u/L
same,ASPARTATE AMINOTRANSFERASE,[3],90 u/L
same,BLOOD UREA NITROGEN,[3],8.17 mg/dL
same,CARBON DIOXIDE,[3],18.33 mmol/L
same,CHLORIDE,[3],102.17 MEQ/L
same,CHOLESTEROL,[3],75.5 mg/dL
same,CREATINE PHOSPHOKINASE,[3],329.33 u/L
same,CREATININE,[3],0.19 mg/dL
same,GLUCOSE,[3],163 mg/dL
same,LACTATE DEHYDROGENASE,[3],253 u/L
same,LIPASE,[3],10.17 u/L
same,PHOSPHORUS,[3],12.57 mg/dL
same,POTASSIUM,[3],5.78 MEQ/L
same,SODIUM,[3],143.17 MEQ/L
same,TOTAL BILIRUBIN,[3],0.32 mg/dL
same,TOTAL PROTEIN,[3],6.1 G/DL
same,URIC ACID,[3],1.68 mg/dL
same,ABSOLUTE EOSINOPHIL,[4],44 CELLS/uL
same,ABSOLUTE LYMPHOCYTE,[4],13234.17 CELLS/uL
same,ABSOLUTE MONOCYTE,[4],357.67 CELLS/uL
same,ABSOLUTE SEGMENTED NEUTROPHIL,[4],1847.5 CELLS/uL
same,BASOPHIL,[4],0%
same,EOSINOPHIL,[4],0.33%
same,ERYTHROCYTE COUNT,[4],5.35 x10E6/uL
same,HEMATOCRIT,[4],34.67%
same,HEMOGLOBIN,[4],13.47 G/DL
same,LEUKOCYTE COUNT,[4],15.48 x10E3/uL
same,LYMPHOCYTE,[4],85%
same,MEAN CORPUSCULAR HEMOGLOBIN,[4],25.28 pg
same,MEAN CORPUSCULAR HEMOGLOBIN CONCENTRATION,[4],38.95 G/DL
same,MEAN CORPUSCULAR VOLUME,[4],64.9 fL
same,MONOCYTE,[4],2.33%
same,NEUTROPHIL,[4],12.33%
same,NUCLEATED RED BLOOD CELLS,[4],0.17 /100WBC
same,PLATELET COUNT,[4],977.33 x10E3/uL
same,ALANINE AMINOTRANSFERASE,[4],83.17 u/L
same,ALBUMIN,[4],4.5 G/DL
same,ALKALINE PHOSPHATASE,[4],333 u/L
same,ASPARTATE AMINOTRANSFERASE,[4],86.33 u/L
same,BLOOD UREA NITROGEN,[4],13 mg/dL
same,CARBON DIOXIDE,[4],28.83 mmol/L
same,CHLORIDE,[4],101.67 MEQ/L
same,CHOLESTEROL,[4],43.5 mg/dL
same,CREATINE PHOSPHOKINASE,[4],192.33 u/L
same,CREATININE,[4],0.21 mg/dL
same,GLUCOSE,[4],143.33 mg/dL
same,LACTATE DEHYDROGENASE,[4],106.5 u/L
same,LIPASE,[4],10.17 u/L
same,PHOSPHORUS,[4],9.88 mg/dL
same,POTASSIUM,[4],6.29 MEQ/L
same,SODIUM,[4],146.55 MEQ/L
same,TOTAL BILIRUBIN,[4],0.17 mg/dL
same,TOTAL PROTEIN,[4],5.77 G/DL
same,URIC ACID,[4],1.02 mg/dL
